# Measured values: patent US6559101B2, “N- (5, 7-dimethoxy [1, 2, 4] triazolo [1, 5-a] pyrimidin-2-yl) arylsulfonamide compounds and their use as herbicides” (Dow AgroSciences LLC, priority 2000, dated 2003)
# Experiments:
# Assay type in all cases: in vivo
# [1] = tested on: wild poinsettia (Euphorbia heterophylla); assay: Preemergence herbicidal activity; details: scored after 3 weeks, 0 no injury, 100 complete kill or no germination
# Procedure: (§1) The soil matrix was contained in plastic pots with a surface area of 161 square centimeters. When required to ensure good germination and healthy plants, a fungicide treatment and/or other chemical or physical treatment was applied. A weighed amount, determined by the highest rate to be tested, of each test compound was placed in a 20 mL glass vial and was dissolved in 8 mL of a 97:3 v/v (volume/volume) mixture of acetone and dimethyl sulfoxide to obtain concentrated stock solutions. […] The stock solutions obtained were diluted with a 99.9:0.1 mixture of water and Tween® 155 surfactant (ethoxylated sorbitan fatty acid ester) to obtain application solutions of known concentration. The solutions containing the highest concentration to be tested were prepared by diluting 4 mL aliquots of the stock solution with 8.5 mL of the mixture and lower concentrations were prepared by dilution of appropriate smaller portions of the stock solution. A 2.5 mL aliquot of each solution of known concentration was sprayed evenly onto the soil of each seeded pot using a Cornwall 5.0 mL glass syringe fitted with a TeeJet TN-3 hollow cone nozzle to obtain thorough coverage of the soil in each pot. Control pots were sprayed in the same manner with the aqueous mixture. A highest application rate of 4.48 kg/ha is achieved when 50 mg of test compound is employed. The treated pots and control pots were placed in a greenhouse with an approximately 15 hr photoperiod which was maintained at about 23-29° C. during the day and 22-28° C. during the night. Nutrients and water were added on a regular basis and supplemental lighting was provided with overhead metal halide 1000 Watt lamps as necessary. The water was added by top-irrigation. After 3 weeks the condition of the test plants that germinated and grew as compared with that of the untreated plants that germinated and grew was determined visually and scored on a scale of 0 to 100 percent where 0 corresponds to no injury and 100 corresponds to complete kill or no germination.
# [2] = tested on: morningglory (Ipomoea hederacea); assay: Preemergence herbicidal activity; details: scored after 3 weeks, 0 no injury, 100 complete kill or no germination
# Procedure: as §1
# [3] = tested on: pigweed (Amaranthus retroflexus); assay: Preemergence herbicidal activity; details: scored after 3 weeks, 0 no injury, 100 complete kill or no germination
# Procedure: as §1
# [4] = tested on: velvetleaf (Abutilion theophrasti); assay: Preemergence herbicidal activity; details: scored after 3 weeks, 0 no injury, 100 complete kill or no germination
# Procedure: as §1
# [5] = tested on: Rox orange sorghum (Sorghum bicolor); assay: Preemergence herbicidal activity; details: scored after 3 weeks, 0 no injury, 100 complete kill or no germination
# Procedure: as §1
# wild oats (Avena fatua) [6] = assay: Preemergence herbicidal activity; details: scored after 3 weeks, 0 no injury, 100 complete kill or no germination
# Procedure: as §1
# [7] = tested on: barnyardgrass (Echinochloa crus-galli); assay: Preemergence herbicidal activity; details: scored after 3 weeks, 0 no injury, 100 complete kill or no germination
# Procedure: as §1
# [8] = tested on: giant foxtail (Setaria faberi); assay: Preemergence herbicidal activity; details: scored after 3 weeks, 0 no injury, 100 complete kill or no germination
# Procedure: as §1
# [9] = tested on: crabgrass (Digitaria sanguinalis); assay: Preemergence herbicidal activity; details: scored after 3 weeks, 0 no injury, 100 complete kill or no germination
# Procedure: as §1
# [10] = tested on: blackgrass (Alopecurus myosuroides); assay: Preemergence herbicidal activity; details: scored after 3 weeks, 0 no injury, 100 complete kill or no germination
# Procedure: as §1
# [11] = tested on: cocklebur (Xanthium strumarium); assay: Preemergence herbicidal activity; details: scored after 3 weeks, 0 no injury, 100 complete kill or no germination
# Procedure: as §1
# [12] = tested on: morningglory (Ipomoea hederacea); assay: Postemergence herbicidal activity; details: scored after 2 weeks, 0 no injury, 100 complete kill
# Procedure: (§2) Seeds of the desired test plant species were planted in Grace-Sierra MetroMix® 306 planting mixture, which typically has a pH of 6.0 to 6.8 and an organic matter content of about 30 percent, in plastic pots with a surface area of 64 square centimeters. When required to ensure good germination and healthy plants, a fungicide treatment and/or other chemical or physical treatment was applied. The plants were grown for 7-21 days in a greenhouse with an approximately 15 hr photoperiod which was maintained at about 23-29° C. during the day and 22-28° C. during the night. Nutrients and water were added on a regular basis and supplemental lighting was provided with overhead metal halide 1000 Watt lamps as necessary. The plants were employed for testing when they reached the first or second true leaf stage. A weighed amount of each test compound, determined by the highest rate to be tested, was placed in a 20 mL glass vial and was dissolved in 4 mL of a 97:3 v/v (volume/volume) mixture of acetone and dimethyl sulfoxide to obtain concentrated stock solutions. […] The concentrated stock solutions obtained were diluted with an aqueous mixture containing acetone, water, iso-propyl alcohol, dimethyl sulfoxide, Atplus 411F crop oil concentrate, and Triton X-155 surfactant (methylenebisdiamyl phenoxy polyethoxy ethanol) in a 48.5:39:10:1.5:1.0:0.02 v/v ratio to obtain spray solutions of known concentration. The solutions containing the highest concentration to be tested were prepared by diluting 2 mL aliquots of the stock solution with 13 mL of the mixture and lower concentrations were prepared by dilution of appropriate smaller portions of the stock solution. Approximately 1.5 mL aliquots of each solution of known concentration were sprayed evenly onto each of the test plant pots using a Devilbiss atomizer driven by compressed air pressure of 2 to 4 psi (140 to 280 kiloPascals) to obtain thorough coverage of each plant. Control plants were sprayed in the same manner with the aqueous mixture. In this test an application rate of 1 ppm results in the application of approximately 1 g/ha. The treated plants and control plants were placed in a greenhouse as described above and watered by sub-irrigation to prevent wash-off of the test compounds. After 2 weeks the condition of the test plants as compared with that of the untreated plants was determined visually and scored on a scale of 0 to 100 percent where 0 corresponds to no injury and 100 corresponds to complete kill.
# [13] = tested on: wild buckwheat (Polygonum convolvulus); assay: Postemergence herbicidal activity; details: scored after 2 weeks, 0 no injury, 100 complete kill
# Procedure: as §2
# [14] = tested on: pigweed (Amaranthus retroflexus); assay: Postemergence herbicidal activity; details: scored after 2 weeks, 0 no injury, 100 complete kill
# Procedure: as §2
# [15] = tested on: velvetleaf (Abutilion theophrasti); assay: Postemergence herbicidal activity; details: scored after 2 weeks, 0 no injury, 100 complete kill
# Procedure: as §2
# [16] = tested on: lambsquarters (Chenopodium album); assay: Postemergence herbicidal activity; details: scored after 2 weeks, 0 no injury, 100 complete kill
# Procedure: as §2
# [17] = tested on: Rox orange sorghum (Sorghum bicolor); assay: Postemergence herbicidal activity; details: scored after 2 weeks, 0 no injury, 100 complete kill
# Procedure: as §2
# wild oats (Avena fatua) [18] = assay: Postemergence herbicidal activity; details: scored after 2 weeks, 0 no injury, 100 complete kill
# Procedure: as §2
# [19] = tested on: giant foxtail (Setaria faberi); assay: Postemergence herbicidal activity; details: scored after 2 weeks, 0 no injury, 100 complete kill
# Procedure: as §2
# [20] = tested on: chickweed (Stellaria media); assay: Postemergence herbicidal activity; details: scored after 2 weeks, 0 no injury, 100 complete kill
# Procedure: as §2
# viola (Viola tricolor) = assay: Postemergence herbicidal activity; details: scored after 2 weeks, 0 no injury, 100 complete kill
# Procedure: as §2
# [21] = tested on: blackgrass (Alopecurus myosuroides); assay: Postemergence herbicidal activity; details: scored after 2 weeks, 0 no injury, 100 complete kill
# Procedure: as §2
# [22] = tested on: cocklebur (Xanthium strumarium); assay: Postemergence herbicidal activity; details: scored after 2 weeks, 0 no injury, 100 complete kill
# Procedure: as §2
# [23] = tested on: lambsquarters (Chenopodium album); assay: Preemergence herbicidal activity; details: scored after 3 weeks, 0 no injury, 100 complete kill or no germination
# Procedure: as §1
Compound,Preemergence herbicidal activity EPHHL ([1]; 35 g/Ha) [%],Preemergence herbicidal activity IPOHE ([2]; 35 g/Ha) [%],Preemergence herbicidal activity AMARE ([3]; 35 g/Ha) [%],Preemergence herbicidal activity ABUTH ([4]; 35 g/Ha) [%],Preemergence herbicidal activity SORBI ([5]; 35 g/Ha) [%],Preemergence herbicidal activity AVEFA (wild oats (Avena fatua) [6]; 35 g/Ha) [%],Preemergence herbicidal activity ECHCG ([7]; 35 g/Ha) [%],Preemergence herbicidal activity SETFA ([8]; 35 g/Ha) [%],Preemergence herbicidal activity DIGSA ([9]; 35 g/Ha) [%],Preemergence herbicidal activity ALOMY ([10]; 35 g/Ha) [%],Postemergence herbicidal activity IPOHE ([12]; 31.3 ppm) [%],Postemergence herbicidal activity POLCO ([13]; 31.3 ppm) [%],Postemergence herbicidal activity AMARE ([14]; 31.3 ppm) [%],Postemergence herbicidal activity ABUTH ([15]; 31.3 ppm) [%],Postemergence herbicidal activity SORBI ([17]; 31.3 ppm) [%],Postemergence herbicidal activity AVEFA (wild oats (Avena fatua) [18]; 31.3 ppm) [%],Postemergence herbicidal activity SETFA ([19]; 31.3 ppm) [%],Postemergence herbicidal activity STEME ([20]; 31.3 ppm) [%],Postemergence herbicidal activity VIOTR (viola (Viola tricolor); 31.3 ppm) [%],Postemergence herbicidal activity ALOMY ([21]; 31.3 ppm) [%],further results
COc1cc(OC)n2nc(NS(=O)(=O)c3cc(C)ccc3OC)nc2n1 [Compound 6],80,50,98,98,95,90,90,98,100,100,70,98,100,95,95,95,95,98,90,90,Preemergence herbicidal activity XANST ([11]; 35 g/Ha): 70%; Postemergence herbicidal activity CHEAL ([16]; 31.3 ppm): 95%; Postemergence herbicidal activity XANST ([22]; 31.3 ppm): 95%
COc1cc(OC)n2nc(NS(=O)(=O)c3c(OCC(F)F)cccc3C(F)(F)F)nc2n1 [Compound 8],–,–,–,–,–,–,–,–,–,–,95,98,100,100,80,60,100,98,85,80,Preemergence herbicidal activity EPHHL ([1]; 17.5 g/Ha): 90%; Preemergence herbicidal activity IPOHE ([2]; 17.5 g/Ha): 90%; Preemergence herbicidal activity AMARE ([3]; 17.5 g/Ha): 100%; Preemergence herbicidal activity ABUTH ([4]; 17.5 g/Ha): 85%; Preemergence herbicidal activity CHEAL ([23]; 17.5 g/Ha): 100%; Preemergence herbicidal activity SORBI ([5]; 17.5 g/Ha): 95%; Preemergence herbicidal activity AVEFA (wild oats (Avena fatua) [6]; 17.5 g/Ha): 30%; Preemergence herbicidal activity ECHCG ([7]; 17.5 g/Ha): 100%; Preemergence herbicidal activity SETFA ([8]; 17.5 g/Ha): 100%; Preemergence herbicidal activity DIGSA ([9]; 17.5 g/Ha): 85%; Preemergence herbicidal activity ALOMY ([10]; 17.5 g/Ha): 95%; Preemergence herbicidal activity XANST ([11]; 17.5 g/Ha): 80%; Postemergence herbicidal activity XANST ([22]; 31.3 ppm): 100%
CCOc1ccc(C)cc1S(=O)(=O)Nc1nc2nc(OC)cc(OC)n2n1 [Compound 10],40,0,98,60,100,80,80,40,0,30,–,–,–,–,–,–,–,–,–,–,Preemergence herbicidal activity CHEAL ([23]; 35 g/Ha): 90%; Postemergence herbicidal activity IPOHE ([12]; 7.8 ppm): 20%; Postemergence herbicidal activity POLCO ([13]; 7.8 ppm): 85%; Postemergence herbicidal activity AMARE ([14]; 7.8 ppm): 95%; Postemergence herbicidal activity ABUTH ([15]; 7.8 ppm): 50%; Postemergence herbicidal activity CHEAL ([16]; 7.8 ppm): 95%; Postemergence herbicidal activity SORBI ([17]; 7.8 ppm): 85%; Postemergence herbicidal activity AVEFA (wild oats (Avena fatua) [18]; 7.8 ppm): 90%; Postemergence herbicidal activity SETFA ([19]; 7.8 ppm): 80%; Postemergence herbicidal activity STEME ([20]; 7.8 ppm): 85%; Postemergence herbicidal activity VIOTR (viola (Viola tricolor); 7.8 ppm): 85%; Postemergence herbicidal activity ALOMY ([21]; 7.8 ppm): 80%; Postemergence herbicidal activity XANST ([22]; 7.8 ppm): 50%
